The values that follow come from US20050192285A1, “Method of treatment” (priority 2000, published 2005).

The conditions of test [1]: cited from earlier work.
A short description of test [2]: GLOBE study: RTI-related hospitalizations over 26 weeks. The conditions noted are these: for percentage of patients hospitalized for RTI-related conditions / cumulative number of patients hospitalized for RTI-related conditions: 26 week study period; for cumulative number of patients hospitalized for RTI-related conditions: ITT (GEMI N=214, CLARI N=224). It counts as in vivo, human. As to the method:
(§1) Prospective, 26 week, double-blind, observational parallel/follow-on study to an acute treatment efficacy and safety study (study 068) (Wilson, et al., Abstracts of the 40th Interscience Conference of Clinical Microbiology and Infectious Diseases, Toronto, Canada, Abstract 815 (2000)) in which patients randomly received a single course of either 5 days of oral GEMI 320mg once daily (o.d.) or 7 days of oral CLARI 500 mg twice daily (b.d.) for AECB (Wilson, et al., Abstracts of the 40th Interscience Conference of Clinical Microbiology and Infectious Diseases, Toronto, Canada, Abstract 815 (2000)).
(§2) Patients were assessed at screening (visit 1) at day 28-35 (visit 2) then at weeks 12 (visit 3) and 26 (visit 4) and by telephone at weeks 8, 17 and 21.
(§3) Information was collected on: recurrent episodes of AECB requiring antimicrobial treatment; use of medical resources related to respiratory tract infection (RTI), including RTI-related:- hospitalizations, physician visits and antimicrobial therapy; time off work and usual activities; and negative impact on performance at work or during usual activities.
Medical resource utilization was analyzed on cumulative data across all patients in the ITT population.

A short description of test [3]: GLOBE study: recurrence of AECB requiring antimicrobial treatment over 26 weeks. It counts as in vivo, human. The note with it: for Difference GEMI-CLARI in % patients with no recurrences / % patients resolved and with no recurrences of AECB: ITT; for % patients resolved and with no recurrences of AECB: GEMI 320 mg o.d./5 days, CLARI 500 mg b.d./7 days. As to the method: Background: Few health outcome studies have been reported for antimicrobial treatment of acute infections. In one study, trends favoring ciprofloxacin versus ‘usual care’ in terms of clinical outcomes were found (Grossman, et al., Chest, 113:131-141 (1998)). In this double-blind, prospective long-term study, patients who enrolled into a study comparing 320 mg gemifloxacin (GEMI) once daily (o.d.)/5 days with 500 mg clarithromycin (CLARI) twice daily (b.d.)/7 days for the treatment of AECB, and agreed at enrollment to continue in the study for up to 26 weeks, were assessed for clinical status and use of health care resources.
Methods: Clinical assessments were performed at screening (day 0), week 4-5 (end of acute study), weeks 12 and 26 and by telephone at weeks 8, 17 and 21.
as §1
All patients entering study 068 at centers in the USA and Canada were asked to participate in the GLOBE study.
as §2, §3
Clinical outcomes were analyzed for patients in the intention to treat population (ITT) who were available for assessment at 26 weeks (visit 4).

In another test the test system is H. influenzae. The note with it: subset of patients with daily sputum cultures; p=0.02; cited from earlier work.

Values joined by “and” are separate entries in the source; they are usually repeats but may differ in a detail not shown here. Equal entries are not always repeated.

In the case of `CO/N=C1\CN(c2nc3c(cc2F)c(=O)c(C(=O)O)cn3C2CC2)CC1CN` (racemic) [GEMI, (R,S)-7-(3-aminomethyl-4-methoxyiminopyrrolidin-1-yl)-1-cyclopropyl-6-fluoro-4-oxo-1,4-dihydro-1,8-naphthyridine-3-carboxylic acid], the “effectiveness of acute treatment compared with CLARI” value in test [1] (5 days GEMI vs 7 days CLARI) is “as effective as”. The “bacteriological success rates compared with CLARI” value in test [1] (all study visits, significantly higher at late follow-up days 28-35) is given as “higher”. In addition, the “RTI-related hospitalization days per 100 patients” value in test [2] (26-week study period) is 20 days per 100 patients. In addition, in test [2] (26-week study period, ITT), the “Cumulative number of RTI-related hospitalization days, mean (SD)” value is reported as 0.20 (1.43) days; the “Cumulative number of RTI-related hospitalization days, median (range)” value is recorded as 0 (0-16) days; the “Median difference gemifloxacin-clarithromycin in RTI-related hospitalization days (95% CI)” value was 0 (0, 0) days. Moreover, in test [2] (ITT), the “percentage of patients hospitalized for RTI-related conditions” value came to 2.3%. Moreover, the “cumulative number of patients hospitalized for RTI-related conditions” value in test [2] came out at 5. Besides, in test [2] (26 weeks, ITT), the “RTI-related hospitalizations across all visits, percentage” value turned out to be 3.3% and the “cumulative number of RTI-related hospitalizations across all visits” value was determined as 7. Moreover, in test [2] (GEMI minus CLARI, 26 weeks), the “treatment difference in RTI-related hospitalizations” value is recorded as −3.87% and the “treatment difference in patients hospitalized for RTI-related conditions” value was −3.91%. Further, the “preventing further exacerbations versus CLARI” value in test [3] (6 month period following start of therapy, GEMI 320 mg o.d./5 days vs CLARI 500 mg b.d./7 days) was “superior to CLARI”. Besides, the “long-term clinical outcomes in AECB compared to clarithromycin” value in test [3] (GLOBE conclusions) is recorded as “superior”. Further, the “patients with a recurrence of AECB” value in test [3] (by week 26) came to 29.0%. The “fewer patients with a recurrence of AECB compared with CLARI” value in test [3] (by week 26, relative reduction (29.0% vs. 41.5%)) worked out at 30%. Further, in test [3] (visit 2 (day 28-35)), the “Difference GEMI-CLARI in % patients with no recurrences” value was determined as 6.3%; the “% patients resolved and with no recurrences of AECB” value is listed as 87.1 (176/202) %. In test [3] (visit 3 (week 12)), the “Difference GEMI-CLARI in % patients with no recurrences” value stood at 6.4%; the “% patients resolved and with no recurrences of AECB” value is reported as 80.9 (148/183) %. Besides, in test [3] (visit 4 (week 26)), the “Difference GEMI-CLARI in % patients with no recurrences” value is 12.5% and 12.5^b %; the “% patients resolved and with no recurrences of AECB” value was 71.0% and 71.0 (120/169) %. The “time to H. influenzae eradication compared with CLARI” value in the test with H. influenzae is listed as “significantly faster”.

`CC[C@H]1OC(=O)[C@H](C)[C@@H](O[C@H]2C[C@@](C)(OC)[C@@H](O)[C@H](C)O2)[C@H](C)[C@@H](O[C@@H]2O[C@H](C)C[C@H](N(C)C)[C@H]2O)[C@](C)(OC)C[C@@H](C)C(=O)[C@H](C)[C@@H](O)[C@]1(C)O` [CLARI, clarithromycin, reference compound]: in test [2] (26-week study period), the “RTI-related hospitalization days per 100 patients” value was determined as 37 days per 100 patients. Moreover, in test [2] (26-week study period, ITT), the “Cumulative number of RTI-related hospitalization days, mean (SD)” value is 0.37 (1.60) days and the “Cumulative number of RTI-related hospitalization days, median (range)” value is given as 0 (0-11) days. For the same molecule, in test [2] (ITT), the “percentage of patients hospitalized for RTI-related conditions” value came to 6.3%. Further, in test [2], the “cumulative number of patients hospitalized for RTI-related conditions” value is reported as 14. In test [2] (26 weeks, ITT), the “RTI-related hospitalizations across all visits, percentage” value was determined as 7.1% and the “cumulative number of RTI-related hospitalizations across all visits” value is recorded as 16. Besides, the “patients with a recurrence of AECB” value in test [3] (by week 26) was 41.5%. Moreover, the “% patients resolved and with no recurrences of AECB” value in test [3] (visit 2 (day 28-35)) is 80.8 (173/214) %. Moreover, the “% patients resolved and with no recurrences of AECB” value in test [3] (visit 3 (week 12)) was 74.4 (131/176) %. The “% patients resolved and with no recurrences of AECB” value in test [3] (visit 4 (week 26)) is 58.5% and 58.5 (100/171) %.
